Among the data in US20210155644A1, “CYCLOPENTENYL PURINE DERIVATIVE OR SALT THEREOF” (Fujifilm Corporation, priority 2018, published 2021) are EC50 values, retold here.

Read-outs that look alike come from different tables or passages of the source.

The subject of the assay is adenovirus type 6 (ADV6). Nature of the assay: Evaluation of anti-adenovirus activity: CRL-11516 cells infected with ADV6, anti-hexon staining, count of stained cells. It counts as cell-based. The method, then:
A system in which CRL-11516 cells (available from ATCC) were infected with adenovirus type 6 (hereinafter, referred to as ADV6) was constructed, and a test for evaluating the anti-adenovirus activity of the compound according to the embodiment of the present invention and the compound of Comparative Example was carried out using the system. The test for evaluating the anti-adenovirus activity was carried out according to the method described below.
CRL-11516 cells were added to a 96-well plate at a cell density of 1×10^4 cells/well and cultured at 37° C. for 24 hours. After the culture was completed, the cell culture liquid was removed, and a serial dilution (100 μL) of the compound according to the embodiment of the present invention or the compound of Comparative Example was added. ADV6 (corresponding to 50TCID50) was added thereto, followed by culturing at 37° C. for 48 hours.
After the culture was completed, the infected cells were stained using Adeno-X Rapid Titer Kit (manufactured by Takara Bio Inc.). 100% methanol was added thereto and the cells were fixed at −20° C. for 10 minutes. The plate was washed three times with phosphate buffered saline (hereinafter, referred to as PBS) and then Mouse Anti-Hexon Antibody was added thereto, followed by incubation at 37° C. for 1 hour. After the incubation was completed, the plate was washed three times with PBS, and Rat Anti-Mouse Antibody was added thereto, followed by incubation at 37° C. for 1 hour. After the incubation was completed, a mixed staining solution of Stable Peroxidase Buffer:DAB Substrate=10:1 was added thereto, followed by incubation at room temperature for 10 minutes for staining of the cells.
The number of dark brown-stained cells was counted under a microscope, and the concentration of the test drug that reduces the dark brown-stained cells by 50% was defined as EC50. EC50 values were calculated for the triplicate test results, and a mean value and a standard deviation thereof were determined.

Setting [1] is: CRL-11516 cells infected with ADV6, 48 hours culture, concentration reducing dark brown-stained cells by 50%, read-out: Anti-AdV activity EC50.
Setting [2] is: Human mastadenovirus C, 48 h, CRL-11516 cells infected with ADV6, 48 hours culture, concentration reducing dark brown-stained cells by 50%, read-out: Anti-AdV activity EC50.
Setting [3] is: Human mastadenovirus C, CRL-11516 cells infected with ADV6, 48 hours culture, concentration reducing dark brown-stained cells by 50%, read-out: Anti-AdV activity EC50.

Take `COC(=O)[C@H](C)NP(=O)(OC[C@@H]1C=C[C@H](n2cnc3c(OC)nc(N)nc32)C1)Oc1ccccc1` (stereo partly drawn) [Example 4-2-2, methyl ((((1 S,4R)-4-(2-amino-6-methoxy-9H-purin-9-yl)cyclopent-2-en-1-yl)methoxy)(phenoxy)phosphoryl)-L-alaninate]: under setting [1], the EC50 was in the range of 10 to 100 nM. For the compound `COc1cccc(OP(=O)(N[C@@H](C)C(=O)OC(C)C)OC[C@@H]2C=C[C@H](n3cnc4c(OC)nc(N)nc43)C2)c1` (stereo partly drawn) [Example 6-2-7, isopropyl ((((1S,4R)-4-(2-amino-6-methoxy-9H-purin-9-yl)cyclopent-2-en-1-yl)methoxy)(3-methoxyphenoxy)phosphoryl)-L-alaninate], under setting [2], the EC50 lay in the range of 10 to 100 nM.

Consider `COc1nc(N)nc2c1ncn2[C@H]1C=C[C@@H](COP(=O)(OCCSC(=O)C(C)(C)C)Oc2ccccc2)C1` (stereo partly drawn) [Example 4-7-1, S-(2-(((((1 S,4R)-4-(2-amino-6-methoxy-9H-purin-9-yl)cyclopent-2-en-1-yl)methoxy) (phenoxy)phosphoryl)oxy)ethyl) 2,2-dimethylpropanethioate], for which the EC50 (Human mastadenovirus C, 48 h, read-out: Anti-AdV activity EC50, CRL-11516 cells infected with ADV6, 48 hours culture, concentration reducing dark brown-stained cells by 50%) fell in the range of 10 to 100 nM. For the compound `COC(=O)[C@H](C)NP(=O)(OC[C@@H]1C=C[C@H](n2cnc3c(NC4CC4)nc(N)nc32)C1)Oc1ccccc1` (stereo partly drawn) [Example 2-2-3, Methyl ((((1S,4R)-4-(2-amino-6-(cyclopropyl-amino)-9H-purin-9-yl)cyclopent-2-en-1-yl)methoxy) (phenoxy)phosphoryl)-L-alaninate], under setting [2], the EC50 fell in the range of 10 to 100 nM. As to `COC(=O)[C@H](C)NP(=O)(OC[C@@H]1C=C[C@H](n2cnc3c(N)nc(N)nc32)C1)Oc1ccc(Br)cc1` (stereo partly drawn) [Example 1-2-6, Methyl ((4-bromophenoxy)(((1S,4R)-4-(2,6-diamino-9H-purin-9-yl)cyclopent-2-en-1-yl)methoxy)phosphoryl)-L-alaninate], the EC50 under setting [2] fell in the range of 100 to 1000 nM.

Consider `COC(=O)[C@H](C)NP(=O)(OC[C@@H]1C=C[C@H](n2cnc3c(OC)nc(N)nc32)C1)Oc1ccccc1` (stereo partly drawn) [Example 4-2-1, methyl ((((1 S,4R)-4-(2-amino-6-methoxy-9H-purin-9-yl)cyclopent-2-en-1-yl)methoxy)(phenoxy)phosphoryl)-L-alaninate], for which the EC50 under setting [2] was in the range of 10 to 100 nM. Take `COc1nc(N)nc2c1ncn2[C@H]1C=C[C@@H](COP(=O)(N[C@@H](C)C(=O)OC(C)C)Oc2ccccc2)C1` (stereo partly drawn) [Example 4-4-2, Isopropyl ((((1 S,4R)-4-(2-amino-6-methoxy-9H-purin-9-yl)cyclopent-2-en-1-yl)methoxy)(phenoxy)phosphoryl)-L-alaninate]: under setting [1], the EC50 is 100 to 1000 nM. For `CNc1nc(N)nc2c1ncn2[C@H]1C=C[C@@H](CO[P@](=O)(N[C@@H](C)C(=O)OC(C)C)Oc2ccccc2)C1` [Example 2-2-29], the EC50 under setting [1] lay in the range of 10 to 100 nM. In the case of `COc1nc(N)nc2c1ncn2[C@H]1C=C[C@@H](COP(=O)(OCCSC(=O)C(C)(C)C)Oc2ccccc2)C1` (stereo partly drawn) [Example 2-1, S-(2-(((((1S,4R)-4-(2-amino-6-methoxy-9H-purin-9-yl)cyclopent-2-en-1-yl)methoxy)(phenoxy)phosphoryl)oxy)ethyl) 2,2-dimethylpropanethioate], the EC50 (read-out: Anti-AdV activity EC50, CRL-11516 cells infected with ADV6, 48 hours culture, concentration reducing dark brown-stained cells by 50%) is < 10 nM. As for `COc1nc(N)nc2c1ncn2[C@H]1C=C[C@@H](COP(=O)(N[C@@H](C)C(=O)OC(C)C)OCCSC(=O)C(C)(C)C)C1` (stereo partly drawn) [Example 1-2-74, isopropyl ((((1S,4R)-4-(2-amino-6-methoxy-9H-purin-9-yl)cyclopent-2-en-1-yl)methoxy)(2-(pivaloylthio)ethoxy)phosphoryl)-L-alaninate], the EC50 under setting [3] lay in the range of 10 to 100 nM. As for `CNc1nc(N)nc2c1ncn2[C@H]1C=C[C@@H](COP(=O)(N[C@@H](C)C(=O)OC)Oc2ccc(Br)cc2)C1` (stereo partly drawn) [Example 1-2-46, Methyl ((((1S,4R)-4-(2-amino-6-(methylamino)-9H-purin-9-yl)cyclopent-2-en-1-yl)methoxy)(4-bromophenoxy)phosphoryl)-L-alaninate], under setting [2], the EC50 was < 10 nM. Take `COc1nc(N)nc2c1ncn2[C@H]1C=C[C@@H](COP(=O)(N[C@@H](C)C(=O)OC(C)C)Oc2ccc(Cl)cc2)C1` (single isomer, unassigned) [Example 4-8-2]: the EC50 under setting [1] is < 10 nM. The same measure, in the same setting: in the case of “Isopropyl ((((1S,4R)-4-(2-amino-6-methoxy- 9H-purin-9-yl)cyclopent-2-en-1- yl)methoxy)(naphthalen-1-yloxy) phosphoryl)-L-alaninate [Example 6-2-26]” it was 10 to 100 nM.

As for `COC(=O)[C@H](C)NP(=O)(OC[C@@H]1C=C[C@H](n2cnc3c(OC)nc(N)nc32)C1)Oc1ccc(Cl)cc1` (stereo partly drawn) [Example 1-2-2, methyl ((((1S,4R)-4-(2-amino-6-methoxy-9H-purin-9-yl)cyclopent-2-en-1-yl)methoxy)(4-chlorophenoxy)phosphoryl)-L-alaninate], under setting [2], the EC50 is < 10 nM. With `CC(C)OC(=O)[C@H](C)NP(=O)(OC[C@@H]1C=C[C@H](n2cnc3c(NC4CC4)nc(N)nc32)C1)Oc1ccccc1` (stereo partly drawn) [Example 2-2-2, Isopropyl ((((1S,4R)-4-(2-amino-6-(cyclopropyl-amino)-9H-purin-9-yl)cyclopent-2-en-1-yl)methoxy) (phenoxy)phosphoryl)-L-alaninate], the EC50 under setting [2] was in the range of 100 to 1000 nM.

For `CCOC(=O)[C@H](C)NP(=O)(OC[C@@H]1C=C[C@H](n2cnc3c(OC)nc(N)nc32)C1)Oc1ccccc1` (stereo partly drawn) [Example 1-2-34, ethyl ((((1S,4R)-4-(2-amino-6-methoxy-9H-purin-9-yl)cyclopent-2-en-1-yl)methoxy)(phenoxy)phosphoryl)-L-alaninate], under setting [2], the EC50 was 10 to 100 nM. With `COC(=O)[C@H](C)NP(=O)(OC[C@@H]1C=C[C@H](n2cnc3c(Cl)nc(N)nc32)C1)Oc1ccc(Cl)cc1` (stereo partly drawn) [Example 4-5-1, methyl ((((1 S,4R)-4-(2-amino-6-chloro-9H-purin-9-yl)cyclopent-2-en-1-yl)methoxy)(4-chlorophenoxy)phosphoryl)-L-alaninate], the EC50 under setting [2] was < 10 nM.

As for `COC(=O)[C@H](C)NP(=O)(OCCSC(=O)C(C)(C)C)OC[C@@H]1C=C[C@H](n2cnc3c(OC)nc(N)nc32)C1` (stereo partly drawn) [Example 4-6-1, ((((1S,4R)-4-(2-amino-6-methoxy-9H-purin-9-yl)cyclopent-2-en-1-yl)methoxy)(2-(pivaloylthio)ethoxy)phosphoryl)-L-alaninate], the EC50 under setting [1] is < 10 nM. Regarding `COC(=O)[C@H](C)NP(=O)(OCCSC(=O)C(C)(C)C)OC[C@@H]1C=C[C@H](n2cnc3c(OC)nc(N)nc32)C1` (stereo partly drawn) [Example 1-2-12, methyl ((((1S,4R)-4-(2-amino-6-methoxy-9H-purin-9-yl)cyclopent-2-en-1-yl)methoxy)(2-(pivaloylthio)ethoxy)phosphoryl)-L-alaninate], under setting [3], the EC50 is < 10 nM. For the compound `COC(=O)[C@H](C)NP(=O)(OC[C@@H]1C=C[C@H](n2cnc3c(OC)nc(N)nc32)C1)Oc1ccc(Br)cc1` (stereo partly drawn) [Example 1-2-3, methyl ((((1S,4R)-4-(2-amino-6-methoxy-9H-purin-9-yl)cyclopent-2-en-1-yl)methoxy)(4-bromophenoxy)phosphoryl)-L-alaninate], the EC50 under setting [2] is < 10 nM. Turning to `CC(C)OC(=O)[C@H](C)N[P@](=O)(OC[C@@H]1C=C[C@H](n2cnc3c(N(C)C)nc(N)nc32)C1)Oc1ccccc1` [Example 2-2-26, Isopropyl ((S)-(((1S,4R)-4-(2-amino-6-(dimethylamino)-9H-purin-9-yl)cyclopent-2-en-1-yl)methoxy) (phenoxy)phosphoryl)-L-alaninate], the EC50 under setting [2] fell in the range of 100 to 1000 nM. As for `CC(C)OC(=O)[C@H](C)N[P@](=O)(OC[C@@H]1C=C[C@H](n2cnc3c(OC(C)C)nc(N)nc32)C1)Oc1ccccc1` [Example 2-2-20, Isopropyl ((S)-(((1S,4R)-4-(2-amino-6-isopropoxy-9H-purin-9-yl)cyclopent-2-en-1-yl)methoxy) (phenoxy)phosphoryl)-L-alaninate], the EC50 under setting [2] was in the range of 100 to 1000 nM. In the case of `COc1nc(N)nc2c1ncn2[C@H]1C=C[C@@H](COP(=O)(N[C@@H](CC(C)C)C(=O)OC(C)C)Oc2ccccc2)C1` (single isomer, unassigned) [Example 7-1-1], the EC50 under setting [1] fell in the range of 10 to 100 nM. For the compound `COC(=O)[C@H](C)NP(=O)(OC[C@@H]1C=C[C@H](n2cnc3c(N(C)C)nc(N)nc32)C1)Oc1ccc(Br)cc1` (stereo partly drawn) [Example 1-2-45, Methyl ((((1S,4R)-4-(2-amino-6-(dimethylamino)-9H-purin-9-yl)cyclopent-2-en-1-yl)methoxy)(4-bromophenoxy)phosphoryl)-L-alaninate], the EC50 under setting [2] is < 10 nM. As for `Nc1nc2c(ncn2[C@H]2C=C[C@@H](CO)C2)c(=O)[nH]1` [Example 1], the EC50 under setting [3] was in the range of 1000 to 10000 nM.
